Laboratory results taken from ChEMBL document CHEMBL1133864, “Identification of a novel family of nucleosides that specifically inhibit HIV-1 reverse transcriptase” (Bioorg Med Chem Lett, 2001).

Experiments:
CCRF-CEM = test: Concentration required to reduce the viability of mock-infected CEM cells by 50%; format: functional; conditions: Homo sapiens
[1] = tested on: Human immunodeficiency virus 2; test: Effective concentration required to inhibit HIV-2 induced cytopathicity by 50% in CEM cells; format: functional, organism-based; conditions: Human immunodeficiency virus 2, CCRF-CEM
[2] = target: T1, Human immunodeficiency virus type 1 reverse transcriptase (Human immunodeficiency virus 1, UniProt Q72547); test: The compound was evaluated for inhibition of HIV-1 wild types […]-Lys recombinant reverse transcriptase
[3] = target: T1, Human immunodeficiency virus type 1 reverse transcriptase; test: The compound was evaluated for inhibition of HIV-1 mutant […]-Lys recombinant reverse transcriptase

SMILES	EC50 [1]	CC50 (CCRF-CEM)	IC50 [2]	IC50 [3]
Cc1cn(C2OC(CO[Si](C)(C)C(C)(C)C)CC2O[Si](C)(C)C(C)(C)C)c(=O)n(CC(=O)O)c1=O (stereo not drawn)	> 10 µM	20.7 µM	33.8 µM	47.4 µM
Cc1cn([C@@H]2O[C@H](CO[Si](C)(C)C(C)(C)C)C3(OS(=O)(=O)C=C3N)[C@H]2O[Si](C)(C)C(C)(C)C)c(=O)[nH]c1=O (stereo partly drawn)	> 20 µM	14 µM	3.6 µM	> 500 µM
Cc1cn([C@@H]2O[C@H](CO[Si](C)(C)C(C)(C)C)[C@@H](O)[C@H]2O[Si](C)(C)C(C)(C)C)c(=O)n(CC(=O)O)c1=O	> 10 µM	23 µM	138 µM	158 µM
Cc1cn([C@@H]2O[C@H](CO[Si](C)(C)C(C)(C)C)[C@@H](O[Si](C)(C)C(C)(C)C)[C@H]2O)c(=O)n(CC(=O)O)c1=O	> 10 µM	29.3 µM	207 µM	335 µM
Cc1cn(C2CCC(CO[Si](C)(C)C(C)(C)C)O2)c(=O)n(CC(=O)O)c1=O (stereo not drawn)	> 250 µM	> 250 µM	–	–
Cc1cn(C2O[C@H](CO[Si](C)(C)C(C)(C)C)[C@@H](O)[C@H]2O)c(=O)n(CC(=O)O)c1=O (stereo partly drawn)	> 250 µM	> 250 µM	–	–
Cc1cn(C2O[C@H](CO)[C@@H](O)[C@H]2O)c(=O)n(CC(=O)O)c1=O (stereo partly drawn)	> 250 µM	> 250 µM	–	–
Cc1cn(C2O[C@H](CO)[C@@H](O)[C@H]2O)c(=O)n(CC(=O)OCc2ccccc2)c1=O (stereo partly drawn)	> 250 µM	> 250 µM	–	–

Further lines, with some results ahead:

EC50 [1]	SMILES	CC50 (CCRF-CEM)	IC50 [2]	IC50 [3]
> 2 µM	Cc1cn(C2OC(CO[Si](C)(C)C(C)(C)C)CC2O[Si](C)(C)C(C)(C)C)c(=O)n(CC(=O)OCc2ccccc2)c1=O (stereo not drawn)	21.6 µM	–	–
> 10 µM	Cc1cn([C@H]2C[C@H](O[Si](C)(C)C(C)(C)C)[C@@H](CO[Si](C)(C)C(C)(C)C)O2)c(=O)n(CC(=O)OCc2ccccc2)c1=O	56.4 µM	–	–
> 250 µM	Cc1cn([C@@H]2O[C@H](CO)[C@@H](O)[C@H]2O[Si](C)(C)C(C)(C)C)c(=O)n(CC(=O)O)c1=O	> 250 µM	–	–
> 50 µM	Cc1cn([C@@H]2O[C@H](CO[Si](C)(C)C(C)(C)C)[C@@H](O[Si](C)(C)C(C)(C)C)[C@H]2O[Si](C)(C)C(C)(C)C)c(=O)n(CC(=O)OCc2ccccc2)c1=O	102 µM	–	–
> 125 µM	Cc1cn([C@@H]2O[C@H](CO[Si](C)(C)C(C)(C)C)[C@@H](O[Si](C)(C)C(C)(C)C)[C@H]2O[Si](C)(C)C(C)(C)C)c(=O)n(CC(=O)O)c1=O	> 125 µM	–	–
> 10 µM	Cc1cn([C@@H]2O[C@H](CO[Si](C)(C)C(C)(C)C)[C@@H](O[Si](C)(C)C(C)(C)C)[C@H]2O)c(=O)n(CC(=O)OCc2ccccc2)c1=O	57.1 µM	–	–
> 10 µM	Cc1cn([C@@H]2O[C@H](CO)[C@@H](O)[C@H]2O[Si](C)(C)C(C)(C)C)c(=O)n(CC(=O)OCc2ccccc2)c1=O	26 µM	–	–
> 10 µM	Cc1cn([C@H]2C[C@H](O[Si](C)(C)C(C)(C)C)[C@@H](CO[Si](C)(C)C(C)(C)C)O2)c(=O)n(CC(=O)O)c1=O	20.3 µM	–	–
> 10 µM	Cc1cn([C@@H]2O[C@H](CO[Si](C)(C)C(C)(C)C)[C@@H](O)[C@H]2O[Si](C)(C)C(C)(C)C)c(=O)n(CC(=O)OCc2ccccc2)c1=O	25.7 µM	–	–
> 50 µM	Cc1cn(C2CCC(CO[Si](C)(C)C(C)(C)C)O2)c(=O)n(CC(=O)OCc2ccccc2)c1=O (stereo not drawn)	> 250 µM	–	–
> 10 µM	Cc1cn(C2O[C@H](CO[Si](C)(C)C(C)(C)C)[C@@H](O)[C@H]2O)c(=O)n(CC(=O)OCc2ccccc2)c1=O (stereo partly drawn)	30 µM	–	–
0.004 µM	Cc1cn([C@H]2C[C@H](N=[N+]=[N-])[C@@H](CO)O2)c(=O)[nH]c1=O [ZIDOVUDINE]	6 µM	–	–
